# Source: PMC3135787 (Antiviral research, 2011)
# Read-outs that look alike come from different tables or passages of the source.
# What was measured:
# [1] = tested on: genotype 1b ET replicon, wild type; type: cell-based, HCV; details: read-out: EC90 WT replicon; wild-type ET replicon, luciferase-based assay
# [2] = tested on: ET replicon with NS5B S96T/N142T; experiment: microbe, parasite or virus in culture; type: cell-based, HCV; details: for EC90 fold change: S96T/N142T mutant EC90 normalised to wild-type; for EC90: read-out: EC90 Mutant replicon
# [3] = tested on: Clone A replicon with NS5B S282T; experiment: microbe, parasite or virus in culture; type: cell-based, HCV; details: for EC90 fold change: S282T mutant EC90 normalised to wild-type; for EC90: read-out: EC90 Mutant replicon
# [4] = tested on: Clone A wild type replicon; experiment: Cross resistance: Clone A wild type replicon, RT-PCR; type: cell-based, HCV; details: read-out: EC90 WT replicon
# [5] = target: recombinant NS5B genotype 2a (JFH-1 strain) (Hepatitis C virus genotype 2a, UniProt Q99IB8); experiment: NS5B polymerase assay, genotype 2a; type: biochemical, HCV
# [6] = tested on: S282T genotype 1b NS5B (Con1 strain); experiment: biochemical; design: species or system HCV; details: genotype 1b RdRp, 5 μM NTPs
# [7] = target: S282T genotype 1b NS5B (Con1 strain) (Hepatitis C virus genotype 1b, UniProt Q9WMX2, S2701T); experiment: biochemical; design: species or system HCV
# [8] = tested on: primary human hepatocytes; experiment: Metabolism of [3H]-PSI-353661 in primary human hepatocytes; type: in vitro ADME; details: for time to maximum intracellular concentration: continuous exposure to 5 μM [3H]-PSI-353661
# [9] = target: recombinant NS5B genotype 3a (Hepatitis C virus genotype 3a, UniProt Q81258); experiment: NS5B polymerase assay, genotype 3a; type: biochemical, HCV
# [10] = target: recombinant NS5B genotype 4a (Hepatitis C virus genotype 4a, UniProt O39929); experiment: NS5B polymerase assay, genotype 4a; type: biochemical, HCV
# [11] = target: recombinant HCV NS5B genotype 1b (Con1 strain), wild-type (Hepatitis C virus genotype 1b, UniProt Q9WMX2); experiment: NS5B polymerase assay, genotype 1b wild-type; type: biochemical
# [12] = tested on: ET replicon with NS5B M423T; type: cell-based, HCV
# HepG2 cells [13] = experiment: Lactic acid production, HepG2; details: 7 days, normalised to rDNA
# HepG2 cells [14] = experiment: Mitochondrial COXII DNA and ribosomal DNA by real time PCR, HepG2; type: cell-based, human; details: HepG2 cells, 0.5 μM (lowest concentration tested), 14 days
# [15] = tested on: mitochondrial COXII DNA (mtDNA); experiment: as above; type: cell-based, human; details: human
# ribosomal DNA (rDNA) [16] = experiment: as above; type: cell-based, human; details: human
# CEM cells [17] = experiment: Mitochondrial COXII DNA and ribosomal DNA by real time PCR, CEM; type: cell-based, human; details: CEM cells, 0.5 μM (lowest concentration tested), 14 days
# [18] = tested on: mitochondrial COXII DNA (mtDNA); experiment: as above; type: cell-based, human; details: human
# ribosomal DNA (rDNA) [19] = experiment: as above; type: cell-based, human; details: human
# CEM cells [20] = experiment: Lactic acid production, CEM; details: 7 days, normalised to rDNA
# [21] = tested on: Human nucleoside diphosphate kinase (NDPK); experiment: NDPK-mediated phosphorylation, coupled assay; type: biochemical; details: for kcat (apparent): 25 °C, PK contributed in the phosphorylation; for Km: read-out: Km (apparent), 25 °C, PK contributed in the phosphorylation
# [22] = 8-day MTS cytotoxicity assay, CEM; type: cell-based, human; details: human
# [23] = 8-day MTS cytotoxicity assay, HepG2; type: cell-based, human; details: human
# [24] = 8-day MTS cytotoxicity assay, Huh7; type: cell-based, human; details: human
# [25] = 8-day MTS cytotoxicity assay, BxPC3; type: cell-based, human; details: human
# [26] = target: L-alanine dehydrogenase (Ala-DH) (Bacillus subtilis, UniProt Q08352)
# [27] = tested on: erythroid progenitor cells (CFU-E and BFU-E); experiment: Human bone marrow stem cell toxicity, 14-day colony formation, erythroid; type: cell-based; details: 1 μg/mL (4 μM), 14 days
# [28] = tested on: myeloid progenitor cells (CFU-GM); experiment: Human bone marrow stem cell toxicity, 14-day colony formation, myeloid; type: cell-based; details: 1 μg/mL (4 μM), 14 days
# rabbit muscle PK = rabbit muscle PK (Oryctolagus cuniculus, UniProt P11974); experiment: Phosphorylation by pyruvate kinase; type: biochemical; details: kinetic parameters unable to be determined (Km too high)
# [29] = target: 3-phosphoglycerate kinase (3-PGK) (Saccharomyces cerevisiae, UniProt P00560); experiment: Phosphorylation by 3-phosphoglycerate kinase; type: biochemical, bakers yeast; details: kinetic parameters unable to be determined (Km too high)
# [30] = tested on: primary human hepatocytes; details: primary human hepatocytes from three donors
# [31] = tested on: ET replicon with NS5B P495L; experiment: microbe, parasite or virus in culture; type: cell-based, HCV
# [32] = tested on: primary human hepatocytes
# Sequence of L-alanine dehydrogenase (Ala-DH) (Q08352 whole entry): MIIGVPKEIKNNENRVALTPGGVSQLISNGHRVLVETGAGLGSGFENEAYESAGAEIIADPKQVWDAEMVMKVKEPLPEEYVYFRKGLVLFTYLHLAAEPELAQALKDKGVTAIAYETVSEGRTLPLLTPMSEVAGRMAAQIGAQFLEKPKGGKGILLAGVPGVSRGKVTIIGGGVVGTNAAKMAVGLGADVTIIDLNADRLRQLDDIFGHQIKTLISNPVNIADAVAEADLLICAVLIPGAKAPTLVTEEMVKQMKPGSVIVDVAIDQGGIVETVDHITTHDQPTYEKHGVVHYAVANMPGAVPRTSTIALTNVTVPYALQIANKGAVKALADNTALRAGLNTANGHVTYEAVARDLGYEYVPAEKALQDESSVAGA
# Sequence of 3-phosphoglycerate kinase (3-PGK) (P00560 whole entry): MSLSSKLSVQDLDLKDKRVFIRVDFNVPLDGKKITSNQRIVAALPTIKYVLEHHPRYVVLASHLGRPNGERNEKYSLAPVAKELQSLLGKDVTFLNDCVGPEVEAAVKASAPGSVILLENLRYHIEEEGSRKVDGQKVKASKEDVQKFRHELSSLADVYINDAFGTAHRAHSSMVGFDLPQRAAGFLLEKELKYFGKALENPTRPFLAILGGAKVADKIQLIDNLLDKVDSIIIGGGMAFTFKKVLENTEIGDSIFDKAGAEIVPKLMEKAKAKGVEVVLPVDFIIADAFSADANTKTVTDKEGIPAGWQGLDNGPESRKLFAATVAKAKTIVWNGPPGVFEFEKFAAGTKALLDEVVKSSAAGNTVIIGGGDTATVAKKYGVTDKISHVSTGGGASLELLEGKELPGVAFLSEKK
# Sequence of rabbit muscle PK (P11974 whole entry): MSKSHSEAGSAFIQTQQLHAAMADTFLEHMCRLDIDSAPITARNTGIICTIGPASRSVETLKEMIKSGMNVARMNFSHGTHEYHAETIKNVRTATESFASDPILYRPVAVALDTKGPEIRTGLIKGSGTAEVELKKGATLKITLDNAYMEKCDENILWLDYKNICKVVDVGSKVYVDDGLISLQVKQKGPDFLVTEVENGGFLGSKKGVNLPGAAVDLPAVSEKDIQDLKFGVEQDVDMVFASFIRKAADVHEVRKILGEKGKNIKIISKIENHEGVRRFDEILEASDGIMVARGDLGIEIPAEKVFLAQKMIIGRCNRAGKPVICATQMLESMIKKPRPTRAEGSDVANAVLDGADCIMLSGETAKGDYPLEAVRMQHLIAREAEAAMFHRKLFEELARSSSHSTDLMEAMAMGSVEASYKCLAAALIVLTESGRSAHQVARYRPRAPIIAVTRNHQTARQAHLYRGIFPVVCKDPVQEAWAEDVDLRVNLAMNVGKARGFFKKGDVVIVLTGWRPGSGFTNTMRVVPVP
structure (smiles),measurement,setting,value
CC(C)OC(=O)[C@H](C)NP(=O)(OC[C@H]1O[C@@H](n2ccc(=O)[nH]c2=O)[C@](C)(F)[C@@H]1O)Oc1ccccc1 (some centres unmarked) [PSI-7851],EC90,[1],430 ± 230 nM
same,EC90 fold change,[2],0.9
same,EC90,"[2]; S96T/N142T, luciferase-based assay",390 ± 190 nM
same,EC90 fold change,[3],16.7
same,EC90,"[3]; S282T, RT-PCR assay",7360 ± 1020 nM
same,EC90,"[4]; Clone A wild type replicon, RT-PCR assay",440 ± 210 nM
"C[C@@]1(F)[C@H](O)[C@@H](COP(=O)(O)OP(=O)(O)OP(=O)(O)O)O[C@H]1n1cnc2c(=O)[nH]c(N)nc21 [PSI-352666, 2′-deoxy-2′-α-fluoro-2′-β-C-methylguanosine-5′-triphosphate]",IC50,[5],4700 ± 600 nM
same,"fold difference in IC50, S282T mutant vs wild-type",[6],~2 fold
same,IC50,[7],9200 ± 1400 nM
same,intracellular concentration,[8]; after 4 hours of exposure to PSI-353661,> 50 µM
same,time to maximum intracellular concentration,[8],about 4 hours
same,IC50,[9],1300 ± 500 nM
same,IC50,[10],4200 ± 800 nM
same,IC50,"[11]; IC50, genotype 1b NS5B, 1 μM NTPs",1000 ± 200 nM
same,IC50,"[11]; IC50, wild-type genotype 1b RdRp, 5 μM NTPs",4000 ± 1100 nM
"CC(C)N(c1cc(-c2ccccc2)sc1C(=O)O)C(=O)[C@H]1CC[C@H](C)CC1 [Thiophene, 3-((1r,4r)-N-isopropyl-4-methylcyclohexanecarboxamido)-5-phenylthiophene-2-carboxylic acid, reference compound]",EC90,[1],3650 ± 210 nM
same,EC90 fold change,[12]; M423T mutant EC90 normalised to wild-type,19.1
same,EC90,"[12]; read-out: EC90 Mutant replicon, M423T, luciferase-based assay",69500 ± 9240 nM
"Nc1ccn([C@H]2CC[C@@H](CO)O2)c(=O)n1 [ddC, 2′,3′-dideoxycytidine]",Lactic acid (Fold change from untreated cells),HepG2 cells [13]; 0.1 μM,1.6 ± 0.68
same,Lactic acid (Fold change from untreated cells),HepG2 cells [13]; 1.0 μM,1.4 ± 0.12
same,Lactic acid (Fold change from untreated cells),HepG2 cells [13]; 10 μM,3.9 ± 0.93
same,Lactic acid (Fold change from untreated cells),HepG2 cells [13]; 50 μM,Toxic.
same,reduction of mitochondrial DNA levels,HepG2 cells [14],more than one log10
same,CC90 at 14 days,[15],< 500 nM
same,CC90 at 14 days,ribosomal DNA (rDNA) [16]; HepG2 cells,12900 ± 9100 nM
same,reduction of mitochondrial DNA levels,CEM cells [17],more than one log10
same,CC90 at 14 days,[18],< 500 nM
same,CC90 at 14 days,ribosomal DNA (rDNA) [19]; CEM cells,22900 ± 11900 nM
same,Lactic acid (Fold change from untreated cells),CEM cells [20]; 0.1 μM,0.9 ± 0.3
same,Lactic acid (Fold change from untreated cells),CEM cells [20]; 1.0 μM,2.2 ± 0.81
same,Lactic acid (Fold change from untreated cells),CEM cells [20]; 10 μM,4.2 ±1.0
same,Lactic acid (Fold change from untreated cells),CEM cells [20]; 50 μM,Toxic
"Nc1nc2c(ncn2[C@@H]2O[C@H](COP(=O)(O)OP(=O)(O)O)[C@@H](O)[C@H]2O)c(=O)[nH]1 [GDP, guanosine-5′-diphosphate, reference compound]",kcat (apparent),[21],38.8 ± 5.0 s⁻¹
same,Km,[21],56.2 ± 4.9 µM
COc1nc(N)nc2c1ncn2[C@@H]1O[C@H](COP(=O)(N[C@@H](C)C(=O)OCC(C)(C)C)Oc2cccc3ccccc23)[C@@H](O)[C@@]1(C)O (some centres unmarked) [INX-08189],Lactic acid (Fold change from untreated cells),HepG2 cells [13]; 0.1 μM,1.1 ± 0.21
same,Lactic acid (Fold change from untreated cells),HepG2 cells [13]; 1.0 μM,3.1 ± 0.61
same,Lactic acid (Fold change from untreated cells),HepG2 cells [13]; 10 μM,Toxic
same,Lactic acid (Fold change from untreated cells),HepG2 cells [13]; 50 μM,Toxic.
same,CC50 at 8 days,[22],15000 ± 2000 nM
same,EC90,[2]; Hepatitis C virus,5.9 ± 2.7 nM
same,EC90 fold change,[2],1.1
same,CC50 at 8 days,[23],2230 ± 100 nM
same,CC90 at 14 days,[15],970 ± 620 nM
same,CC90 at 14 days,ribosomal DNA (rDNA) [16],750 ± 270 nM
same,CC90 at 14 days,[18],16900 ± 1700 nM
same,CC90 at 14 days,ribosomal DNA (rDNA) [19],16300 ± 4100 nM
same,Lactic acid (Fold change from untreated cells),CEM cells [20]; 0.1 μM,1.4 ± 0.35
same,Lactic acid (Fold change from untreated cells),CEM cells [20]; 1.0 μM,1.4 ± 0.69
same,Lactic acid (Fold change from untreated cells),CEM cells [20]; 10 μM,1.5 ± 0.50
same,Lactic acid (Fold change from untreated cells),CEM cells [20]; 50 μM,Toxic.
same,EC90,[3]; Hepatitis C virus,110 ± 4 nM
same,EC90 fold change,[3],6.1
same,EC90,[4]; Hepatitis C virus,18 ± 1 nM
same,CC50 at 8 days,[24],320 ± 30 nM
same,CC50 at 8 days,[25],2810 ± 1520 nM
"C[C@H](N)C(=O)O [alanine, L-alanine]",Vmax,[26],0.0206 ± 0.0005 ΔA340/min
"O=c1[nH]cc(F)c(=O)[nH]1 [5-fluorouracil, 5-Fluorouracil, reference compound]",inhibition of BFU-E colony formation,[27],completely inhibited
same,inhibition of CFU-GM colony formation,[28],completely inhibited
"C[C@@]1(F)[C@H](O)[C@@H](COP(=O)(O)OP(=O)(O)O)O[C@H]1n1cnc2c(=O)[nH]c(N)nc21 [PSI-353579, 2′-deoxy-2′-α-fluoro-2′-β-C –methylguanosine-5′-diphosphate]",time to maximum intracellular concentration,[8],1 to 2 h
same,phosphorylation by PK,rabbit muscle PK,Phosphorylation of PSI-353579 was also observed
same,phosphorylation by 3-PGK,[29],Phosphorylation of PSI-353579 was also observed
same,kcat (apparent),[21],44.6 ± 4.9 s⁻¹
same,Km,[21],66.3 ± 2.2 µM
"O=[N+]([O-])c1ccc(OP(=O)(O)Oc2ccc([N+](=O)[O-])cc2)cc1 [BNPP, bis(4-nitrophenyl)phosphate]",effect on formation of the triphosphate PSI-352666 from PSI-353661,[30],inhibited the formation of PSI-352666 in hepatocytes from three different donors in a dose-dependent manner
"COc1ccc2c(c1)C1CC1(N)Cn1c-2c(C2CCCCC2)c2ccc(C(=O)NS(=O)(=O)N(C)C)cc21 (centres unmarked) [2-phenol indole, 5a-amino-12-cyclohexyl-N-(N,N-dimethylsulfamoyl)-3-methoxy-4b,5,5a,6-tetrahydrobenzo [3,4] cyclopropa [5,6] azepino [1,2-a] indole-9-carboxamide, reference compound]",EC90,"[31]; Hepatitis C virus, read-out: EC90 Mutant replicon",60800 ± 19900 nM
same,EC90 fold change,[31]; P495L mutant EC90 normalised to wild-type,51.9
CCC[C@H](NC(=O)[C@@H]1[C@H]2CCC[C@H]2CN1C(=O)[C@@H](NC(=O)[C@@H](NC(=O)c1cnccn1)C1CCCCC1)C(C)(C)C)C(=O)C(=O)NC1CC1 [telaprevir],effect on formation of the triphosphate PSI-352666 from PSI-353661,[32],not inhibited by telaprevir in hepatocytes from two of the three donors
"Nc1ccn([C@@H]2O[C@H](CO)[C@@H](O)C2(F)F)c(=O)n1 [Gemcitabine, 2′-deoxy-2′-difluorocytidine]",CC50 at 8 days,[22]; CEM cells,< 1000 nM
same,CC50 at 8 days,[23]; HepG2 cells,< 1000 nM
same,CC50 at 8 days,[24]; Huh7 cells,< 1000 nM
same,CC50 at 8 days,[25]; BxPC3 cells,< 1000 nM
